According to PubChem BioAssay (NCI):
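Following 48 hours of exposure in 96-well plates, responses at five concentrations were used to interpolate endpoints linearly. TGI: concentration producing complete growth inhibition.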

Columns and labels:
Assay in all cases: NCI anticancer screen, dose series, 48 h
[1] = system: CCRF-CEM leukemia
[2] = system: UO-31 renal
[3] = system: T-47D breast
[4] = system: HS 578T breast
[5] = system: NCI-H522 lung
[6] = system: TK-10 renal
[7] = system: SK-OV-3 ovarian
[8] = system: K-562 leukemia
[9] = system: HCT-116 colon
[10] = system: PC-3 prostate

| Compound | TGI [1] | TGI [2] | TGI [3] | TGI [4] | TGI [5] | TGI [6] | TGI [7] | TGI [8] | TGI [9] | TGI [10] |
| --- | --- | --- | --- | --- | --- | --- | --- | --- | --- | --- |
| COc1ccc(NC(=S)NC(=O)c2ccc3c(c2)Sc2ccccc2O3)c([N+](=O)[O-])c1 | > 100 µM | 57.4 µM | > 100 µM | 43.2 µM | 35.3 µM | 36.9 µM | 98.3 µM | > 100 µM | > 100 µM | > 100 µM |
| CN(C)CCC(=O)/C=C\c1ccccc1 | 25 µM | 34 µM | – | – | 39.3 µM | 32.9 µM | – | 36.8 µM | 28.7 µM | – |
| CC(=O)c1cnc2oc3ccc(O)cc3c2c1-c1ccccc1 | > 100 µM | – | 80.4 µM | > 100 µM | – | > 100 µM | 45.4 µM | > 100 µM | > 100 µM | > 100 µM |
| C[C@H]1SC(c2ccc(Cl)cc2Cl)N(NC(=O)c2ccncc2)C1=O (some centres undefined) | > 100 µM | 96.1 µM | > 100 µM | > 100 µM | 60.5 µM | – | > 100 µM | > 100 µM | 60.4 µM | 29.7 µM |
| COc1nc(C#CC(C)(C)C)nc(OC)n1 | – | > 100 µM | > 100 µM | 91.8 µM | 49.3 µM | 57.8 µM | > 100 µM | > 100 µM | > 100 µM | > 100 µM |
| OCc1ccc2c(c1)CC1(Cc3ccc(/C=N/O)cc3C1)C2 (centres undefined) | > 100 µM | 80.9 µM | > 100 µM | > 26.4 µM | 10.8 µM | > 100 µM | > 100 µM | – | > 100 µM | > 100 µM |
| COC(=O)c1cc(C#N)[nH]c1-c1cc(Br)cs1 | 39.3 µM | 29.5 µM | 12.8 µM | 45.4 µM | 13.3 µM | 57.1 µM | 46 µM | > 79.9 µM | 28.3 µM | 40.9 µM |
| COc1ccc(C2c3cc4c(cc3OC(N3CCOCC3)C2C)OCO4)c(OC)c1OC (centres undefined) | 55.4 µM | 35.1 µM | > 100 µM | 19.2 µM | 29.7 µM | 70.5 µM | – | 21 µM | 22.3 µM | 88.7 µM |
| COc1ccc(N(C(=O)Nc2ccc(Cl)c(Cl)c2)C2c3cccn3C(=O)N2c2ccc(Cl)c(Cl)c2)cc1 (centres undefined) | > 100 µM | > 100 µM | – | > 100 µM | – | > 100 µM | – | > 100 µM | > 100 µM | > 100 µM |
| CCOC(=O)C#Cc1ccccc1 | 12.4 µM | 2.11 µM | > 100 µM | 82.3 µM | – | 59.9 µM | 89.6 µM | 8.91 µM | 17.7 µM | 31.3 µM |
| CCOC(=O)/C(O)=C1\C(=O)N(C)C(=O)C1c1cccc(OC)c1 (centres undefined) | > 100 µM | > 100 µM | – | – | > 100 µM | – | > 100 µM | > 100 µM | > 100 µM | – |
| C=C1c2nc3ccccc3n2C=C(c2ccc(Cl)cc2)N1c1ccc(OC)cc1 | > 100 µM | 19.4 µM | – | – | 18.5 µM | 13.2 µM | 23.7 µM | > 100 µM | 21.6 µM | 45.5 µM |
| O=C(N/N=C/c1ccc(Br)cc1)N/N=C/c1ccc(Br)cc1 | 31 µM | 30.5 µM | > 100 µM | 10.8 µM | – | 5.39 µM | 7.96 µM | > 100 µM | > 100 µM | > 100 µM |
| CCOP(=O)(/C=C\n1ccc(N)nc1=O)OCC | > 100 µM | – | > 100 µM | > 100 µM | > 100 µM | > 100 µM | > 100 µM | > 100 µM | > 100 µM | > 100 µM |
| Cc1ccc(/C=C2\Cc3c(C)cc(C)cc3C2=O)c(C(=O)O)c1 | > 100 µM | > 100 µM | > 100 µM | > 100 µM | > 100 µM | > 100 µM | – | > 100 µM | > 100 µM | > 100 µM |
| O=c1[nH]nc(Cc2ccccc2)n1/N=C/c1ccncc1 | > 100 µM | > 100 µM | > 100 µM | > 100 µM | > 100 µM | > 100 µM | – | > 100 µM | > 100 µM | > 100 µM |
| CCCCn1c(-c2ccc([N+](=O)[O-])cc2)cs/c1=N/N=C1\C(=O)Nc2ccc(Br)cc21 | > 100 µM | 34.2 µM | 35.1 µM | > 100 µM | 36.7 µM | 34 µM | 48.8 µM | 73.1 µM | 29.3 µM | – |
| COCCOCCOC1=CC(=O)c2c(O)ccc(O)c2C1=O | 4.48 µM | 3.02 µM | 3.48 µM | 6.05 µM | 2.93 µM | 4.51 µM | – | 3.77 µM | 1.05 µM | 6.73 µM |
| COc1ccc(COCC[C@H](C)OC2OC(CO[Si](C)(C)C(C)(C)C)C(OC(=O)CCCN=[N+]=[N-])C(OC(=O)CCCN=[N+]=[N-])C2OC(=O)CCCN=[N+]=[N-])cc1 (some centres undefined) | > 100 µM | 66.2 µM | > 100 µM | > 100 µM | > 100 µM | > 100 µM | > 100 µM | – | > 100 µM | > 100 µM |
| c1c2c(cc(-n3nnc4c3CCCCCC4)c1-n1nnc3c1CCCCCC3)CCCCCC2 | 27.3 µM | 18.9 µM | – | – | 1.85 µM | 25.4 µM | 34.5 µM | 40.6 µM | 21.6 µM | – |
| CC1(C)[C@H]2CC[C@@]13C(=O)N1C(=O)O[C@@H]([C@H]1Cl)C(Cl)(COCc1ccccc1)C(=O)OCCO[C@H]3C2 (some centres undefined) | > 100 µM | > 100 µM | > 100 µM | > 100 µM | > 100 µM | – | > 100 µM | > 100 µM | > 100 µM | > 100 µM |
| CN(C)CCNC(=O)c1cccc2nc(-c3ccccc3)oc12 | > 100 µM | 45.1 µM | – | – | – | – | > 100 µM | > 100 µM | > 100 µM | – |
| COc1ccc(CC2COc3cc(O)cc(O)c3C2=O)cc1O (centres undefined) | > 100 µM | > 100 µM | > 100 µM | > 100 µM | > 100 µM | > 100 µM | 38.6 µM | > 100 µM | – | > 100 µM |
| O=c1cc(/C=C/c2ccccc2)[nH]c2cc3c(cc12)OCO3 | – | 20.9 µM | 17.3 µM | 8.75 µM | – | 29.4 µM | 15.9 µM | – | 13.4 µM | – |
